# Tests used:
# tyrosinase = tyrosinase (Agaricus bisporus, UniProt C7FF04); experiment: Enzyme kinetic analysis (V-S curve, Lineweaver–Burk plot, secondary replot); format: biochemical
# Protocol: The inhibition type was measured by the reaction rate–substrate concentration curve and the Lineweaver–Burk plot. L-tyrosine solutions were diluted to different concentrations (5 mM, 7.5 mM, 9 mM, 12 mM, 15 mM) as the substate. The inhibition constant was determined by the second plot of the y-intercept versus the concentration of the inhibitor. The values of Kis were calculated from the following formula: y-intercept=1/Vm1+[I]/Kis
# The inhibition constant Kis was obtained from the plot of the y-intercept versus the concentration of 10, which was calculated to be 0.04 mM (Figure 5C).
# HeLa cells = test system: HeLa cells; set-up: method as in PMID 21747753, PMID 21673896, PMID 31671793; details: obtained from marine-derived fungi; cited from earlier work
# Aβ1–42 = test system: Aβ1–42; set-up: method as in PMID 31520649; details: pair of enantiomeric compounds from corn silk; cited from earlier work
# tyrosinase, sequence (C7FF04 1-392): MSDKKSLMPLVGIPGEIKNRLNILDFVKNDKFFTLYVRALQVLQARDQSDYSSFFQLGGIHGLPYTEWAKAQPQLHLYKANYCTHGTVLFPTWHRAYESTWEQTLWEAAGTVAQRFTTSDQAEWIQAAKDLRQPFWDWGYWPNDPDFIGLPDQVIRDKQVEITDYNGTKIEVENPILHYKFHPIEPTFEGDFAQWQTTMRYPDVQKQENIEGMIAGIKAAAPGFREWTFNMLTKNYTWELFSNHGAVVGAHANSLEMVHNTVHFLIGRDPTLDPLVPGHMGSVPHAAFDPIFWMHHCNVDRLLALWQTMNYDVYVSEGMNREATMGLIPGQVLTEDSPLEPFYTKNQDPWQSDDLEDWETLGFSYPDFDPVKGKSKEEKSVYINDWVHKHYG
Compound,"inhibition type on tyrosinase (tyrosinase; L-tyrosine 5–15 mM, Lineweaver–Burk plot)",change of Km and Vm with increasing inhibitor concentration (tyrosinase; ratio Km/Vm remained unchanged),cytotoxic activity against HeLa cells (HeLa cells),anti-Aβ1–42 aggregation activity (Aβ1–42)
"COC(=O)C(=O)c1c[nH]c2ccccc12 [Compound 10, (1H-indol-3-yl) oxoacetic acid methyl ester]",uncompetitive inhibitor,decreased,weak,
"COC(=O)CCCCCCC[C@H]1C=CC(=O)O1 [Compound 9, Cornilkone C]",,,,weak

# Source: article PMC10381909, “Secondary Metabolites from the Cultures of Medicinal Mushroom Vanderbylia robiniophila and Their Tyrosinase Inhibitory Activities” (Journal of Fungi, 2023)
